Among the test systems are BT-549; HCT-116; HCT-15; HOP-92; HT-29; M14; Malme-3M; NCI-H23; NCI-H460; OVCAR-3; OVCAR-8; RPMI-8226; SF-268; SF-295; SK-MEL-28; SW-620; TK-10; U-251; UACC-257; UO-31.
Holding throughout (test): NCI-60 cell line screen, 48 h

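Assay format: 96-well plates, 48-hour exposure. The concentration for 50% growth inhibition is given as GI50.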 Activity calls are given as the source filed them. No stated cut-off is given here; in the data, active = GI50 up to about 1.1 µM and inactive = higher. Some results are limits rather than exact numbers.

With `C=C1C(=O)O[C@H]2C[C@@]3(C)[C@H](O)CCC(=C)[C@@H]3[C@@H](OC(C)=O)[C@H]12`, the GI50 with BT-549 was 7.33 µM (inactive); in the experiment with HCT-116 it was 3.66 µM (inactive); in the experiment with HCT-15, 1.85 µM; in the experiment with HOP-92, 2.71 µM (inactive); in the experiment on HT-29 it was 5.92 µM (inactive); in the experiment with M14, 5.9 µM (inactive). The GI50 with Malme-3M was 1.45 µM (inactive); in the experiment on NCI-H23, 10.7 µM (inactive); in the experiment with NCI-H460, 13.1 µM (inactive); in the experiment with OVCAR-3, 12.3 µM (inactive); in the experiment on OVCAR-8 it was 18.7 µM (inactive); in the experiment on RPMI-8226, 5 µM (inactive). Moreover, the GI50 in the experiment on SF-268 was 19.2 µM (inactive); with SF-295, 18.9 µM (inactive); with SK-MEL-28, 20 µM (inactive); with SW-620, 4.85 µM (inactive); in the experiment with TK-10 it was 6.15 µM (inactive); in the experiment with U-251, 20.2 µM (inactive). For the same compound, the GI50 in the experiment with UACC-257 was 15.4 µM (inactive); in the experiment with UO-31, 13.5 µM (inactive).

Consider `S=C1N=C2C(=N1)n1c3c(c4ccccc41)CCCC23` (stereo not given), for which the GI50 in the experiment with BT-549 is 59.2 µM (inactive); with HCT-116 it was 35.2 µM (inactive); in the experiment on HCT-15, 46.3 µM; in the experiment with HOP-92, > 100 µM (inactive); in the experiment with HT-29, 35.1 µM (inactive); in the experiment on M14, > 100 µM (inactive). In addition, the GI50 with Malme-3M was 64.9 µM (inactive); in the experiment with NCI-H23, 48.3 µM (inactive); in the experiment on NCI-H460, 38.6 µM (inactive); with OVCAR-3, 52.4 µM (inactive); in the experiment with OVCAR-8, 32.1 µM (inactive); in the experiment on RPMI-8226, 30 µM (inactive). Besides, the GI50 is 49 µM (inactive) in the experiment on SF-268; 38.6 µM (inactive) with SF-295; > 100 µM (inactive) with SK-MEL-28; 32.4 µM (inactive) in the experiment with SW-620; > 100 µM (inactive) in the experiment on TK-10; 35 µM (inactive) in the experiment on U-251. Further, the GI50 in the experiment with UACC-257 is 47.4 µM (inactive); in the experiment with UO-31 it was 60.5 µM (inactive).

For `ClCCCSSCCCCl`, the GI50 is 21.5 µM (inactive) in the experiment on BT-549; 25.7 µM (inactive) with HCT-116; 22 µM in the experiment on HCT-15; 16.2 µM (inactive) with HOP-92; 27.4 µM (inactive) with HT-29; 38.4 µM (inactive) with M14. The GI50 with Malme-3M was 32.3 µM (inactive); with NCI-H23, 38.3 µM (inactive); in the experiment with NCI-H460, 35.6 µM (inactive); in the experiment with OVCAR-3 it was 36.6 µM (inactive); in the experiment on OVCAR-8, 23.6 µM (inactive); in the experiment on RPMI-8226, 31 µM (inactive). Besides, the GI50 in the experiment on SF-268 is 39.5 µM (inactive); with SF-295, 37.5 µM (inactive); in the experiment with SK-MEL-28, 45 µM (inactive); in the experiment on SW-620 it was 27.7 µM (inactive); in the experiment with TK-10 it was > 59.4 µM (inactive); in the experiment on U-251, 42 µM (inactive). For the same compound, the GI50 with UACC-257 is 36.8 µM (inactive); in the experiment with UO-31 it was 30.7 µM (inactive).

As for `O=[N+]([O-])c1ccc(C2=NOC(c3ccc(Cl)cc3)N2C23CC4CC(CC(C4)C2)C3)cc1` (stereo not given), the GI50 in the experiment on BT-549 is > 100 µM (inactive); with HCT-116 it was 28.1 µM (inactive); in the experiment with HCT-15, 97.1 µM; in the experiment with HOP-92, 25.5 µM (inactive); in the experiment on HT-29, > 100 µM (inactive); with M14, > 100 µM (inactive). The GI50 in the experiment on Malme-3M was > 100 µM (inactive); in the experiment on NCI-H23, > 100 µM (inactive); in the experiment on NCI-H460 it was > 100 µM (inactive); in the experiment with OVCAR-3 it was > 100 µM (inactive); in the experiment with OVCAR-8, > 100 µM (inactive); in the experiment with RPMI-8226 it was 15.5 µM (inactive). Also, the GI50 with SF-268, with SF-295, in the experiment on SK-MEL-28, with SW-620, in the experiment with TK-10 and with U-251 was > 100 µM (inactive) throughout. The GI50 in the experiment on UACC-257 and in the experiment with UO-31 was > 100 µM (inactive) in each case.

Regarding `O=C(O)CCC(O)=C1S(=O)(=O)OCCOS1(=O)=O`, the GI50 was > 100 µM (inactive) with BT-549; > 100 µM (inactive) in the experiment on HCT-116; greater than 100 µM in the experiment with HCT-15; > 100 µM (inactive) in the experiment with HOP-92; > 100 µM (inactive) with HT-29; > 100 µM (inactive) in the experiment with M14. Also, the GI50 in the experiment with Malme-3M, in the experiment with NCI-H23, in the experiment on NCI-H460, in the experiment on OVCAR-3, with OVCAR-8 and in the experiment on RPMI-8226 was > 100 µM (inactive) throughout. Besides, the GI50 in the experiment on SF-268, in the experiment on SF-295, with SK-MEL-28, with SW-620, in the experiment on TK-10 and with U-251 was > 100 µM (inactive) throughout. The GI50 in the experiment on UACC-257 and in the experiment on UO-31 was > 100 µM (inactive) each time.

Turning to `COC(=O)CSc1cc(Cl)c(C)cc1S(=O)(=O)Nc1n[nH]c(N)n1`, the GI50 in the experiment on BT-549 is > 10 µM (inactive); in the experiment with HCT-116 it was > 10 µM (inactive); in the experiment with HCT-15, greater than 10 µM; in the experiment on HOP-92, > 10 µM (inactive); in the experiment on HT-29, > 10 µM (inactive); with M14, > 10 µM (inactive). The GI50 in the experiment with Malme-3M, with NCI-H23, with NCI-H460, with OVCAR-3, with OVCAR-8 and in the experiment on RPMI-8226 was > 10 µM (inactive) throughout. Also, the GI50 with SF-268, in the experiment on SF-295, with SK-MEL-28, in the experiment on SW-620, in the experiment on TK-10 and in the experiment with U-251 was > 10 µM (inactive) each time. The GI50 in the experiment on UACC-257 and in the experiment with UO-31 was > 10 µM (inactive) each time.

For `CCOC(=O)c1cc2cc(Cc3ccc4[nH]c(C(=O)OCC)cc4c3)ccc2[nH]1`, the GI50 with BT-549 was 12.6 µM (inactive); in the experiment on HCT-116 it was 38.5 µM (inactive); in the experiment with HCT-15 it was greater than 100 µM; in the experiment with HOP-92, 12.3 µM (inactive); in the experiment on HT-29, 35.4 µM (inactive); in the experiment on M14, > 100 µM (inactive). The GI50 in the experiment on Malme-3M is 37.1 µM (inactive); in the experiment on NCI-H23, 14.7 µM (inactive); in the experiment on NCI-H460, 24.1 µM (inactive); in the experiment with OVCAR-3, 73.6 µM (inactive); with OVCAR-8, 5.94 µM (inactive); with RPMI-8226, 28.6 µM (inactive). For the same compound, the GI50 in the experiment on SF-268 was 13.5 µM (inactive); with SF-295, 17.5 µM (inactive); with SK-MEL-28, 29.4 µM (inactive); in the experiment with SW-620, 63.5 µM (inactive); in the experiment on TK-10, 13.9 µM (inactive); in the experiment on U-251, 11.2 µM (inactive). In addition, the results for the GI50 with UACC-257 and with UO-31 were 43.6 µM (inactive) and 59 µM (inactive), respectively.

Take `CN(C)Cc1cc(C(C)(C)C)ccc1-c1ccc(C(C)(C)C)cc1CN(C)C`: the GI50 in the experiment on BT-549 was > 100 µM (inactive); in the experiment on HCT-116, > 100 µM (inactive); in the experiment on HCT-15, greater than 100 µM; in the experiment with HOP-92, > 100 µM (inactive); in the experiment on HT-29 it was 35 µM (inactive); with M14, 41.6 µM (inactive). Further, the GI50 in the experiment with Malme-3M was 51.9 µM (inactive); in the experiment with NCI-H23, > 100 µM (inactive); in the experiment with NCI-H460, 96.8 µM (inactive); in the experiment with OVCAR-3, 43.3 µM (inactive); in the experiment on OVCAR-8, > 100 µM (inactive); in the experiment with RPMI-8226 it was 39.9 µM (inactive). In addition, the GI50 was > 100 µM (inactive) in the experiment on SF-268; > 100 µM (inactive) with SF-295; 41.1 µM (inactive) in the experiment on SK-MEL-28; > 100 µM (inactive) with SW-620; > 100 µM (inactive) with TK-10; 77.8 µM (inactive) in the experiment with U-251. Moreover, the GI50 was 37.1 µM (inactive) in the experiment on UACC-257 and 81.3 µM (inactive) with UO-31.

For the compound `COC(=O)c1sc2ncc3c(c2c1N)CCCCCC3`, the GI50 is > 100 µM (inactive) in the experiment on BT-549; > 100 µM (inactive) in the experiment with HCT-116; greater than 100 µM in the experiment on HCT-15; > 100 µM (inactive) with HOP-92; > 100 µM (inactive) with HT-29; > 100 µM (inactive) in the experiment on M14. In addition, the GI50 with Malme-3M, in the experiment on NCI-H23, in the experiment on NCI-H460, with OVCAR-3, with OVCAR-8 and in the experiment on RPMI-8226 was > 100 µM (inactive) in each case. Moreover, the GI50 in the experiment on SF-268, with SF-295, in the experiment with SK-MEL-28, in the experiment on SW-620, in the experiment with TK-10 and in the experiment with U-251 was > 100 µM (inactive) in each case. Further, the GI50 in the experiment with UACC-257 and in the experiment with UO-31 was > 100 µM (inactive) throughout.

Regarding `O=C1C(CO)=C(CO)C(=O)c2c(O)ccc(O)c21`, the GI50 in the experiment on BT-549 is 0.204 µM (active); with HCT-116 it was 0.218 µM (active); with HCT-15, 0.214 µM; in the experiment with HOP-92 it was 0.261 µM (active); with HT-29, 0.105 µM (active); in the experiment with M14, 0.143 µM (active). For the same compound, the GI50 is 0.217 µM (active) in the experiment with Malme-3M; 0.389 µM (active) with NCI-H23; 0.923 µM (active) in the experiment with NCI-H460; 0.655 µM (active) in the experiment on OVCAR-3; 0.942 µM (active) with OVCAR-8; 0.117 µM (active) in the experiment on RPMI-8226. For the same compound, the GI50 in the experiment with SF-268 was 0.649 µM (active); in the experiment with SF-295, 1.69 µM (inactive); in the experiment on SK-MEL-28 it was 0.391 µM (active); in the experiment on SW-620, 0.082 µM (active); in the experiment on TK-10 it was 0.352 µM (active); in the experiment with U-251, 2.22 µM (inactive). In addition, the GI50 with UACC-257 was 0.349 µM (active); with UO-31, 1 µM (active).

The record behind these values is ChEMBL document CHEMBL1201862, “PubChem BioAssay data set” (2004).
